Experimental data from US9499553B2 (CHUGAI SEIYAKU KABUSHIKI KAISHA, priority 2013, dated 2016).
Structures can show the parent of a compound that is named as a salt.

Biological target: T1, human NaPi-IIb (Homo sapiens, UniProt O95436)
T1 construct: expressed in transfected cells
T1 sequence (O95436 1-690): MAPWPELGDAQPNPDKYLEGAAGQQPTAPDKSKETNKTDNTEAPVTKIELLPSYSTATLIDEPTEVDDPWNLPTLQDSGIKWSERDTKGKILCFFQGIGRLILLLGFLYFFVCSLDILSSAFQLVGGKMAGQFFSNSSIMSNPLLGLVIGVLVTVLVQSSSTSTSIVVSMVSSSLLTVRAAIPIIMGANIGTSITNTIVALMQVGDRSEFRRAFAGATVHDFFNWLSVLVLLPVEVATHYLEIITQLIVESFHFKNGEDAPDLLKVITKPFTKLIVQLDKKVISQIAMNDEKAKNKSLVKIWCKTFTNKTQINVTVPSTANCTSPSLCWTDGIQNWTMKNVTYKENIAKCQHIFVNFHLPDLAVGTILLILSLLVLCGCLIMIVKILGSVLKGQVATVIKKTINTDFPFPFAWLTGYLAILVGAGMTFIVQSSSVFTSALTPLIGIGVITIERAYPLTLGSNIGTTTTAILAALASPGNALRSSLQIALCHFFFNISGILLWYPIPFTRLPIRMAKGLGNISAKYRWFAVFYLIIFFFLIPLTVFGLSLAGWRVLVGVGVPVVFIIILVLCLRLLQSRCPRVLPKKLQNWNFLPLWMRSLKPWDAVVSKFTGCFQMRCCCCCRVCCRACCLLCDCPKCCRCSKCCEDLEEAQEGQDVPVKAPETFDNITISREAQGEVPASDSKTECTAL
Experiment: Inhibitory effect on 33PO4 uptake into human NaPi-IIb-expressing CHO cells
Assay type: cell-based
Conditions: read-out: IC50
Procedure, shortened: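 Stable human NaPi-IIb CHO line (G418-selected), plated and cultured overnight; ³³PO4 added in buffer A and uptake run at room temperature. Cells washed with ice-cold buffer A, then uptake counted by liquid scintillation.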

Structure (SMILES) | IC50 [µM]
COC(=O)c1cccc(-c2cc(C(F)(F)F)ccc2NC(=O)C2=C(O)[C@@]3(C)CCCN3N(Cc3cccc(F)c3F)C2=O)c1OC [Example 65] | 16.2
C[C@]12CCCN1N(Cc1c(F)cc(OCCCCCCOC[C@@H](O)CO)cc1F)C(=O)C(C(=O)Nc1ccc(C(F)(F)F)cc1-c1ccc(C(F)(F)F)nc1)=C2O [Example 154] | 2.5
CN(C)S(=O)(=O)c1ccc(-c2cc(C(F)(F)F)ccc2NC(=O)C2=C(O)[C@@]3(C)CCCN3N(Cc3cccc(F)c3F)C2=O)s1 [Example 71] | 7.8
C[C@]12CCCN1N(Cc1ccc(SCCN3CCOCC3)c(F)c1F)C(=O)C(C(=O)Nc1ccc(C(F)(F)F)cc1-c1ccc(C(F)(F)F)nc1)=C2O [Example 163, (4aR)-1-[[2,3-Difluoro-4-(2-morpholin-4-ylethylsulfanyl)phenyl]methyl]-4-hydroxy-4a-methyl-2-oxo-N-[4-(trifluoromethyl)-2-[6-(trifluoromethyl)pyridin-3-yl]phenyl]-6,7-dihydro-5H-pyrrolo[1,2-b]pyridazine-3-carboxamide hydrochloride] | 6.8
Cc1cc(-c2cc(C(F)(F)F)ccc2NC(=O)C2=C(O)[C@@]3(C)CCCN3N(Cc3cccc(F)c3F)C2=O)cnc1C#N [Example 101] | 9.4
C[C@]12CCCN1N(Cc1cccc(F)c1F)C(=O)C(C(=O)Nc1ccc(Br)cc1-c1cc(C(F)(F)F)ncn1)=C2O [Example 64] | 6.5
CN1N(Cc2cccc(F)c2F)C(=O)C(C(=O)Nc2ccc(Br)c(C(F)(F)F)n2)=C(O)C12CCC2 [Example 258] | 2.7
CCOc1cccc(-c2cc(C(F)(F)F)ccc2NC(=O)C2=C(O)[C@@]3(C)CCCN3N(Cc3cccc(F)c3F)C2=O)c1OC [Example 66] | 17.3
COCCOCCOCCCCCCCCN1C(=O)C(C(=O)Nc2ccc(C(F)(F)F)cc2-c2cc(C(F)(F)F)ncn2)=C(O)[C@@]2(C)CCCN12 [Example 236] | 24.7
Cc1cccc(CN2C(=O)C(C(=O)Nc3ccc(C(F)(F)F)cc3-c3ccc(C(F)(F)F)nc3)=C(O)[C@@]3(C)CCCN23)c1F [Example 205] | 1.6
COc1cccc(-c2cc(C(F)(F)F)ccc2NC(=O)C2=C(O)[C@@]3(C)CCCN3N(Cc3ccc(C#CCOCCCO)c(F)c3F)C2=O)c1OC [Example 127] | 17.6
CN1[C@@H](C(C)(C)C)C(O)=C(C(=O)Nc2ccc(Cl)cc2-c2cc(C(F)(F)F)ncn2)C(=O)N1Cc1cccc(F)c1F [Example 237] | 12.8
Cc1nc(NC(=O)C2=C(O)C3(CCCC3)N(C)N(Cc3cccc(F)c3F)C2=O)ccc1Br [Example 262] | 9.9
C[C@]12CCCN1N(Cc1ccccc1C#N)C(=O)C(C(=O)Nc1ccc(C(F)(F)F)cc1-c1cc(C(F)(F)F)ncn1)=C2O [Example 178] | 8.2
C[C@]12CCCN1N(Cc1cccc(C#N)c1)C(=O)C(C(=O)Nc1cc(F)c(Br)c(F)c1)=C2O [Example 220] | 12.2
C[C@]12CCCN1N(Cc1ccccc1Cl)C(=O)C(C(=O)Nc1ccc(C(F)(F)F)cc1-c1ccc(C(F)(F)F)nc1)=C2O [Example 168] | 2.6
C[C@]12CCCN1N(Cc1cccc(F)c1F)C(=O)C(C(=O)Nc1ccc(C(F)(F)F)cc1-c1cnc(Br)cn1)=C2O [Example 73] | 2.3
C[C@]12CCCN1N(Cc1c(Cl)cc(OCCN3CCOCC3)cc1Cl)C(=O)C(C(=O)Nc1cnc(C(F)(F)F)nc1-c1ccc(C(F)(F)F)nc1)=C2O [Example 146, (4aR)-1-[[2,6-Dichloro-4-(2-morpholin-4-ylethoxy)phenyl]methyl]-4-hydroxy-4a-methyl-2-oxo-N-[2-(trifluoromethyl)-4-[6-(trifluoromethyl)pyridin-3-yl]pyrimidin-5-yl]-6,7-dihydro-5H-pyrrolo[1,2-b]pyridazine-3-carboxamide hydrochloride] | 10.2
CC1(C)C(O)=C(C(=O)Nc2ccc(C(F)(F)F)cc2-c2cc(C(F)(F)F)ncn2)C(=O)N(Cc2cccc(F)c2F)N1c1ccccc1 [Example 299] | 18.8
COc1ccc(OC)c(CN2C(=O)C(C(=O)Nc3ccc(C(F)(F)F)cc3-c3ccc(C(F)(F)F)nc3)=C(O)[C@@]3(C)CCCN23)c1 [Example 176] | 4
COc1cccc(-c2cc(C(F)(F)F)ccc2NC(=O)C2=C(O)[C@@]3(C)CCCN3N(Cc3ccc(C#CCCCO)c(F)c3F)C2=O)c1OC [Example 138] | 11.9
Cc1nc(NC(=O)C2=C(O)[C@H](C(C)(C)C)N(C)N(Cc3cccc(F)c3F)C2=O)ccc1Br [Example 241] | 16.5

More lines, now with the values ahead:

IC50 [µM] | Structure (SMILES)
8.7 | CN1N(Cc2ccc(OCCCCCCC(=O)O)c(F)c2F)C(=O)C(C(=O)Nc2ccc(C(F)(F)F)cc2-c2cc(C(F)(F)F)ncn2)=C(O)C12CCCC2 [Example 335]
7.6 | CN1N(Cc2ccc(OCCN3CCOCC3(C)C)c(F)c2F)C(=O)C(C(=O)Nc2ccc(C(F)(F)F)cc2-c2cc(C(F)(F)F)ncn2)=C(O)C12CCC2 [Example 341]
6.5 | C[C@]12CCCN1N(Cc1ccccc1F)C(=O)C(C(=O)Nc1ccc(C(F)(F)F)cc1-c1cc(C(F)(F)F)ncn1)=C2O [Example 207]
6.4 | CN1N(Cc2cccc(F)c2F)C(=O)C(C(=O)Nc2ccc(C(F)(F)F)cc2-c2cc(C(F)(F)F)ncn2)=C(O)C12CCCC2 [Example 260]
13.7 | C[C@@H]1COC[C@H](C)N1CCOc1ccc(CN2C(=O)C(C(=O)Nc3ccc(C(F)(F)F)cc3-c3cc(C(F)(F)F)ncn3)=C(O)C3(CCC3)N2C)c(F)c1F [Example 344]
10.7 | CCC1(CC)C(O)=C(C(=O)Nc2ccc(C(F)(F)F)cc2-c2ccc(C(F)(F)F)nc2)C(=O)N(Cc2ccc(OCCN3CCOCC3)c(F)c2F)N1C [Example 293]
9.8 | CN1N(Cc2cccc(F)c2F)C(=O)C(C(=O)Nc2ccc(Cl)cc2-c2cc(C(F)(F)F)ncn2)=C(O)C12CCC2 [Example 255]

Same assay, conditions: read-out: IC50 against 33PO4 uptake into human NaPi-IIb-expressing cells

IC50 [µM] | Structure (SMILES)
16.3 | COCC(C)(C)N(C)CCOc1ccc(CN2C(=O)C(C(=O)Nc3ccc(C(F)(F)F)cc3-c3cc(C(F)(F)F)ncn3)=C(O)C3(CCCC3)N2C)c(F)c1F [Example 372]
23.9 | CC(=O)NCCN(C)CCOc1ccc(CN2C(=O)C(C(=O)Nc3ccc(C(F)(F)F)cc3-c3cc(C(F)(F)F)ncn3)=C(O)C3(CCC3)N2C)c(F)c1F [Example 353]
23.5 | CN(CCO)CCOc1ccc(CN2C(=O)C(C(=O)Nc3ccc(C(F)(F)F)cc3-c3cc(C(F)(F)F)ncn3)=C(O)C3(CCCC3)N2C)c(F)c1F [Example 373]
24.8 | CN1N(Cc2ccc(OCCOCCNCC(O)CO)c(F)c2F)C(=O)C(C(=O)Nc2ccc(C(F)(F)F)cc2-c2cc(C(F)(F)F)ncn2)=C(O)C12CCCC2 (stereo not drawn) [Example 419, 7-[[4-[2-[2-(2,3-Dihydroxypropylamino)ethoxy]ethoxy]-2,3-difluorophenyl]methyl]-10-hydroxy-6-methyl-8-oxo-N-[4-(trifluoromethyl)-2-[6-(trifluoromethyl)pyrimidin-4-yl]phenyl]-6,7-diazaspiro[4.5]dec-9-ene-9-carboxamide]
15 | COC(=O)[C@@H]1CCCN1CCOc1ccc(CN2C(=O)C(C(=O)Nc3ccc(C(F)(F)F)cc3-c3cc(C(F)(F)F)ncn3)=C(O)C3(CCC3)N2C)c(F)c1F [Example 355]
7.8 | CN1N(Cc2ccc(OCCCCOC[C@H](O)CO)c(F)c2F)C(=O)C(C(=O)Nc2ccc(C(F)(F)F)cc2-c2cc(C(F)(F)F)ncn2)=C(O)C12CCC2 [Example 390]
18.6 | CN(CCOCCOc1ccc(CN2C(=O)C(C(=O)Nc3ccc(C(F)(F)F)cc3-c3cc(C(F)(F)F)ncn3)=C(O)C3(CCCC3)N2C)c(F)c1F)C[C@H](O)[C@@H](O)[C@H](O)[C@H](O)CO [Example 420, 7-[[2,3-Difluoro-4-[2-[2-[methyl-[(2S,3R,4R,5R)-2,3,4,5,6-pentahydroxyhexyl]amino]ethoxy]ethoxy]phenyl]methyl]-10-hydroxy-6-methyl-8-oxo-N-[4-(trifluoromethyl)-2-[6-(trifluoromethyl)pyrimidin-4-yl]phenyl]-6,7-diazaspiro[4.5]dec-9-ene-9-carboxamide]
18 | CN1N(Cc2ccc(OCCN3CCN(CCOCCO)CC3)c(F)c2F)C(=O)C(C(=O)Nc2ccc(C(F)(F)F)cc2-c2cc(C(F)(F)F)ncn2)=C(O)C12CCCC2 [Example 378]
28 | CN1N(Cc2ccc(OCCN3CCN(S(C)(=O)=O)CC3)c(F)c2F)C(=O)C(C(=O)Nc2ccc(C(F)(F)F)cc2-c2cc(C(F)(F)F)ncn2)=C(O)C12CCC2 [Example 363]
14.7 | COC(=O)CN(C)CCOc1ccc(CN2C(=O)C(C(=O)Nc3ccc(C(F)(F)F)cc3-c3cc(C(F)(F)F)ncn3)=C(O)C3(CCCC3)N2C)c(F)c1F [Example 368]
26.1 | COCCN(CCOC)CCOc1ccc(CN2C(=O)C(C(=O)Nc3ccc(C(F)(F)F)cc3-c3cc(C(F)(F)F)ncn3)=C(O)C3(CCC3)N2C)c(F)c1F [Example 348]
6.2 | CN1N(Cc2ccc(OCCCCCOC[C@H](O)CO)c(F)c2F)C(=O)C(C(=O)Nc2ccc(C(F)(F)F)cc2-c2ccc(C(F)(F)F)nc2)=C(O)C12CCC2 [Example 385]
25.5 | CN1N(Cc2ccc(OCCN(CCO)CCO)c(F)c2F)C(=O)C(C(=O)Nc2ccc(C(F)(F)F)cc2-c2cc(C(F)(F)F)ncn2)=C(O)C12CCC2 [Example 351]
